Tests used:
[1] = target: Phosphatidylinositol 4,5-bisphosphate 3-kinase catalytic subunit beta isoform (Homo sapiens, UniProt P42338); experiment: Inhibition of human recombinant PI3Kbeta using PIP2/ATP as substrate incubated for 20 mins followed by substrate addition by Kinase Glo reagent based luminescence assay
[2] = target: Phosphatidylinositol 4,5-bisphosphate 3-kinase catalytic subunit gamma isoform (Homo sapiens, UniProt P48736); experiment: Inhibition of human recombinant PI3Kgamma using PIP2/ATP as substrate incubated for 20 mins followed by substrate addition by Kinase Glo reagent based luminescence assay
[3] = target: Serine/threonine-protein kinase mTOR (Homo sapiens, UniProt P42345); experiment: Inhibition of C-terminal FLAG-tagged recombinant mTOR (1362 to 2549 residues) (unknown origin) using Biotin-Ahx-Lys-Lys-Ala-Asn-Gln-Val-Phe-Leu-Gly-Phe-Thr-Tyr-Val-Ala-Pro-Ser-Val-Leu-Glu-Ser-Val-Lys-Glu-NH2 as substrate after 90 mins by AlphaScreen assay
physchem = settings: octanol/buffer, pH 7.4
in vitro [4] = settings: human, hepatocytes
in vitro [5] = settings: rat, hepatocytes
[6] = target: Serine/threonine-protein kinase ATR (Homo sapiens, UniProt Q13535); experiment: Inhibition of ATR in human HT-29 cells assessed as reduction in Chk1 phosphorylation at Ser-345 residue after 60 mins in presence of 4-nitroquinoline-1-oxide by Hoechst 33258 staining based plate reader analysis; assay type: cell-based
[7] = target: Phosphatidylinositol 4,5-bisphosphate 3-kinase catalytic subunit alpha isoform (Homo sapiens, UniProt P42336); experiment: Inhibition of human recombinant PI3Kalpha using PIP2/ATP as substrate incubated for 20 mins followed by substrate addition by Kinase Glo reagent based luminescence assay
[8] = target: Voltage-gated inwardly rectifying potassium channel KCNH2 (Homo sapiens, UniProt Q12809)
[9] = target: T1, Serine-protein kinase ATM (Homo sapiens, UniProt Q13315); experiment: Inhibition of ATM phosphorylation at Ser-1981 residue in human HT-29 cells incubated for 1 hr followed by X-ray irradiation by Hoechst staining based fluorescence plate reader analysis; assay type: cell-based
[10] = target: Vascular endothelial growth factor receptor 2 (Homo sapiens, UniProt P35968); experiment: Inhibition of KDR (unknown origin)
[11] = target: Glycogen synthase kinase-3 beta (Homo sapiens, UniProt P49841); experiment: Inhibition of GSK3beta (unknown origin)
[12] = target: T1, Serine-protein kinase ATM; experiment: Inhibition of ATM (unknown origin) using p53 as substrate incubated for 30 mins followed by substrate addition measured after 2 hrs in presence of ATP by HTRF method
[13] = target: DNA-dependent protein kinase catalytic subunit (Homo sapiens, UniProt P78527); experiment: Inhibition of DNAPK (unknown origin) using p53-based peptide substrate preincubated for 5 min prior to ATP addition
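Wherever logD is given: determined by the shake flask method.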

Sequence of Voltage-gated inwardly rectifying potassium channel KCNH2 (Q12809 whole entry): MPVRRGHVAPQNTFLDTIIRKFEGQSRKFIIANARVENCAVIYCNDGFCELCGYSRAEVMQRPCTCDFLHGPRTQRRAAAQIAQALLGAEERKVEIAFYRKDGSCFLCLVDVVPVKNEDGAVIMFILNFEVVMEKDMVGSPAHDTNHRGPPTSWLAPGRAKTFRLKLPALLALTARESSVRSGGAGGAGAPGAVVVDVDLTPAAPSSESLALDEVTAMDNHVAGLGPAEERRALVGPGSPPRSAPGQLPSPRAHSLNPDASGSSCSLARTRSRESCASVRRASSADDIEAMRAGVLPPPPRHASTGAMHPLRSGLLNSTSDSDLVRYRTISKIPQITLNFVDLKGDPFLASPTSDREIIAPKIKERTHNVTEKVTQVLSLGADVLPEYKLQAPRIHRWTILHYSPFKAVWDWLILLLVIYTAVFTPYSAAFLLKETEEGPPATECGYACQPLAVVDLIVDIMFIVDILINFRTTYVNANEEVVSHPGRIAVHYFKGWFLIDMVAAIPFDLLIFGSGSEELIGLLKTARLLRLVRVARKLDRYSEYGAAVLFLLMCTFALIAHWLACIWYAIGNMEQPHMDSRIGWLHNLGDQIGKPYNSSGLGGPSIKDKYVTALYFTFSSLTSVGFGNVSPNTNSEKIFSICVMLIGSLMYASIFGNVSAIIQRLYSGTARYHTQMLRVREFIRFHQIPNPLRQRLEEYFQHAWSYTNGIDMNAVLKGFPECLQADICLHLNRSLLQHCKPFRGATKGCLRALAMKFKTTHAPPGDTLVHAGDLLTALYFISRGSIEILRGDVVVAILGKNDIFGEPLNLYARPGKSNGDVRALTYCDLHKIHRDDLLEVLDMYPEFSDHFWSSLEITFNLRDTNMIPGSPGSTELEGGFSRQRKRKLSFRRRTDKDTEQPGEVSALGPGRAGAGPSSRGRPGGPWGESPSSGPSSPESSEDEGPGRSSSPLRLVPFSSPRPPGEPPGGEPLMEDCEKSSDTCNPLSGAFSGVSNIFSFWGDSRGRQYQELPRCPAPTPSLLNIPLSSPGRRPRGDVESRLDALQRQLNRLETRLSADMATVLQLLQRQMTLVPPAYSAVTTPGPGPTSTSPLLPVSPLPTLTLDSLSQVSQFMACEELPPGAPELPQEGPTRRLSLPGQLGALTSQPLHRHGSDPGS
Sequence of Phosphatidylinositol 4,5-bisphosphate 3-kinase catalytic subunit beta isoform (P42338 whole entry, canonical isoform): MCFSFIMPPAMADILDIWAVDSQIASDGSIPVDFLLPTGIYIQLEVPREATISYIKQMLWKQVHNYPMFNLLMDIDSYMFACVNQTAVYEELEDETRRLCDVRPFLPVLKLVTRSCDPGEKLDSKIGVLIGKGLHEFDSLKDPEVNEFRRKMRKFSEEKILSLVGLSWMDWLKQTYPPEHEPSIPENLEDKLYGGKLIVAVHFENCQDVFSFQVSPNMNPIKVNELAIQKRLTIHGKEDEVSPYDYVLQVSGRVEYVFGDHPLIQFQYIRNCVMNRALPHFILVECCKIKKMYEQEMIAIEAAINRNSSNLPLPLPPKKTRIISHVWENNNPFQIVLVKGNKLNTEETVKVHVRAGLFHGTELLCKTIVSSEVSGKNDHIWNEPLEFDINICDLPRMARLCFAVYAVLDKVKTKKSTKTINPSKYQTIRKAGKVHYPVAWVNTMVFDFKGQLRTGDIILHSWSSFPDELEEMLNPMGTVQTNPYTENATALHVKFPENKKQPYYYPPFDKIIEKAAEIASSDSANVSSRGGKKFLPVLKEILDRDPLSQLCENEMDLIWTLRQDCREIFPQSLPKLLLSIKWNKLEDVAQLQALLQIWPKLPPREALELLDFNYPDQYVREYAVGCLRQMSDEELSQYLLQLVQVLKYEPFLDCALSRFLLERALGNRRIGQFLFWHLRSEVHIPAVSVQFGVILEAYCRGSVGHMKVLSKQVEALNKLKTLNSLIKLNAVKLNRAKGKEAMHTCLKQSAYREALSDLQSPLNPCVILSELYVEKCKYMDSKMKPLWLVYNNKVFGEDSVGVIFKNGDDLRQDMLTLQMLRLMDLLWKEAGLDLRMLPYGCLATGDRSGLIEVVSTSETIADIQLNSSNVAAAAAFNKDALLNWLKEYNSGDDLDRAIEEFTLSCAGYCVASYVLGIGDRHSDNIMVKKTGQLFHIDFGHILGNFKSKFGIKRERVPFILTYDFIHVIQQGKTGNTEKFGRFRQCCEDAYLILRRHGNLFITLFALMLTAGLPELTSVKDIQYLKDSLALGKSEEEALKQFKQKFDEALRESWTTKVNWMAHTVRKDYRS
Sequence of Phosphatidylinositol 4,5-bisphosphate 3-kinase catalytic subunit gamma isoform (P48736 whole entry, the tested form may be a part, canonical isoform): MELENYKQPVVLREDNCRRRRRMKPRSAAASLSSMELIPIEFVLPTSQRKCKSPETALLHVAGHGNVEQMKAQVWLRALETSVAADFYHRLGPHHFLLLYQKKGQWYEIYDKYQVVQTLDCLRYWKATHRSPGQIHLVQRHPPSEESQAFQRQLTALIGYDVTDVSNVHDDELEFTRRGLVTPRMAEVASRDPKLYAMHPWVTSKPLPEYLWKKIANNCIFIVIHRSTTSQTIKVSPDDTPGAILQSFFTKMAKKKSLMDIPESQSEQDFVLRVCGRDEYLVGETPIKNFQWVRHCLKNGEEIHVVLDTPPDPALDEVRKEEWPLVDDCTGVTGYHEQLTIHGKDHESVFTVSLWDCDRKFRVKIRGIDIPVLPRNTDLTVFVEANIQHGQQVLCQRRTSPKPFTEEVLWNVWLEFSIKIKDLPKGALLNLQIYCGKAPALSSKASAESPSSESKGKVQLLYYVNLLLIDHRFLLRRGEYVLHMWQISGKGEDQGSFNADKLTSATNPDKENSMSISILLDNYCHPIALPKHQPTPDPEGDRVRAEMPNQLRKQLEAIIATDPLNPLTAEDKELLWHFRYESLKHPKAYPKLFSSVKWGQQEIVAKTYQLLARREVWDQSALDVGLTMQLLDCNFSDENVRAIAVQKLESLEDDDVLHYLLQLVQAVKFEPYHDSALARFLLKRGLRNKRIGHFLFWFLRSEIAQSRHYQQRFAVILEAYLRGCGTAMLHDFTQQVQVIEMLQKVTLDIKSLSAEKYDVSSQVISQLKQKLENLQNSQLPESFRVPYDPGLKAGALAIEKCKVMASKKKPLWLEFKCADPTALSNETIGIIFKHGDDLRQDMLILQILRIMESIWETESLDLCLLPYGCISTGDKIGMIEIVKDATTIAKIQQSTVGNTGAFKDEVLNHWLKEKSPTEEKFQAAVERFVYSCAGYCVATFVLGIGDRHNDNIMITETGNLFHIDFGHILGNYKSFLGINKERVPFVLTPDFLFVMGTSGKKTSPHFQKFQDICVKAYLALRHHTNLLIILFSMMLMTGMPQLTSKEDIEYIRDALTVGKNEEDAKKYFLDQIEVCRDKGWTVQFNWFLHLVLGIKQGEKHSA
Sequence of Phosphatidylinositol 4,5-bisphosphate 3-kinase catalytic subunit alpha isoform (P42336 whole entry, canonical isoform): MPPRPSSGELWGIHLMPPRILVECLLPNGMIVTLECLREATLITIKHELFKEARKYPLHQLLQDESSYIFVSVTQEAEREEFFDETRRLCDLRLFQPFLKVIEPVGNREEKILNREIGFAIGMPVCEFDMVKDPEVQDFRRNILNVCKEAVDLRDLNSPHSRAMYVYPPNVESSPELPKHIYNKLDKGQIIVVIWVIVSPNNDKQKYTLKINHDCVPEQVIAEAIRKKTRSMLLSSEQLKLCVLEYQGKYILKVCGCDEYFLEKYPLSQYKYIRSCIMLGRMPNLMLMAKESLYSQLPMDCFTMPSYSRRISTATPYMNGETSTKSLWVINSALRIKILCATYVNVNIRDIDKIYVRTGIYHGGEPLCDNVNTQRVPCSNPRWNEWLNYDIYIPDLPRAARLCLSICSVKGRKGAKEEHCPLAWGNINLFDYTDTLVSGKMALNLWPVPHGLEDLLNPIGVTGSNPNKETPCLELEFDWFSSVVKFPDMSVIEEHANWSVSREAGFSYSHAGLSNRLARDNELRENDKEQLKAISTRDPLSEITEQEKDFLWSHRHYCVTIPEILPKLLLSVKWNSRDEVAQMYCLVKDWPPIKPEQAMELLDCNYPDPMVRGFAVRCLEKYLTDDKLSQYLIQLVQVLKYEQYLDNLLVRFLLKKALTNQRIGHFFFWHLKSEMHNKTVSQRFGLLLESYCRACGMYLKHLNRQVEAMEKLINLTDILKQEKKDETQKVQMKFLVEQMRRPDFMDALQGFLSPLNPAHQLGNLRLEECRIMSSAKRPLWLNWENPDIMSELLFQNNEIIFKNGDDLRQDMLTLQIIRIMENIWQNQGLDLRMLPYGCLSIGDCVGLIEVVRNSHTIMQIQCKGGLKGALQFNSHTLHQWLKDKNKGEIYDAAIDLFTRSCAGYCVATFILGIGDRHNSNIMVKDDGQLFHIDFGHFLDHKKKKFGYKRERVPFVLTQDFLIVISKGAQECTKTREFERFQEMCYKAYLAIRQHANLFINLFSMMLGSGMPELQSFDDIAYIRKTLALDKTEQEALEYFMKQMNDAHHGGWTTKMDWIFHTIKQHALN
Sequence of Glycogen synthase kinase-3 beta (P49841 whole entry): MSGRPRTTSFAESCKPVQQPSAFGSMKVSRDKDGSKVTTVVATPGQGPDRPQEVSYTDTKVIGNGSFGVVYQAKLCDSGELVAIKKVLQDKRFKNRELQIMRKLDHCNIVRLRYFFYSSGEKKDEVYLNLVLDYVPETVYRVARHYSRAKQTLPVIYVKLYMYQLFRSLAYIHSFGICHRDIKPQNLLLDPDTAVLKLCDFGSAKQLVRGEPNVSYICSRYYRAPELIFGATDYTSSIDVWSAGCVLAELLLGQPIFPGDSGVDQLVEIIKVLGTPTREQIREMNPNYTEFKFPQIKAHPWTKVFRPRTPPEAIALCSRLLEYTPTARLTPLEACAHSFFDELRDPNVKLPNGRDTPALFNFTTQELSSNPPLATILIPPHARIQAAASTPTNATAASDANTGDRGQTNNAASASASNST

Compound	IC50 [1] [µM]	IC50 [2] [µM]	IC50 [3] [µM]	logD (physchem)	hepatocyte CLint at 1.5 h (in vitro [4]) [µL/min/1e6 cells]	hepatocyte CLint at 1.5 h (in vitro [5]) [µL/min/1e6 cells]	IC50 [6] [µM]	IC50 [7] [µM]	IC50 [8] [µM]	IC50 [9] [µM]	IC50 [10] [µM]	IC50 [11] [µM]	IC50 [12] [µM]	IC50 [13] [µM]
O=c1cc(-c2cccc3c2Sc2ccccc2S3)oc(N2CCOCC2)c1 [KU-55933]	0.133	> 1	5.58	4	33	230	> 30	0.458						
CCC(CC)CNc1c(C(N)=O)cnc2ccc(-c3ccc(COC)cc3)cc12				4.1	21	76	> 30		18	0.373				
CCC(CC)CNc1c(C(N)=O)cnc2ccc(-c3ccnnc3)cc12				3.1	18	95	2.6			0.908				
CCC(CC)CNc1c(C(N)=O)cnc2ccc(-c3cnn(C)c3)cc12							7.1			0.525				
CCC(CC)CNc1c(C(N)=O)cnc2ccc(-c3ccc(COC)nc3)cc12				> 4.3	< 6.8	110	> 30		2.5	0.045	82	> 100		
CCC(CC)CNc1c(C(N)=O)c(C)nc2ccc(-c3cccnc3)cc12				2.7	6	43	> 30		0.68	> 30				
NC(=O)c1cnc2ccc(-c3cccnc3)cc2c1NC1CCOCC1				1.9	< 4.2	8.5	3.1			0.954				
CNC(=O)c1cnc2ccc(-c3cccnc3)cc2c1N[C@H](C)c1ccc(Cl)cc1							> 30			> 30				
COCc1ccc(-c2cc3c(N[C@@H](C)c4ccn(C)n4)c(C(N)=O)cnc3cc2F)c(F)n1							> 30							
C[C@@H]1CN(CC(=O)Nc2ccc3c(c2)Cc2cccc(-c4cc(=O)cc(N5CCOCC5)o4)c2S3)C[C@H](C)O1	2.14	> 1	6.55	3.6	13	22		0.452						
C[C@@H](Nc1c(C(N)=O)cnc2ccc(C#N)cc12)c1ccc(Cl)cc1	0.139	0.204	0.846	3.5	10	41	4.7	0.036		14.4			0.049	0.109
CCC(CC)CNc1c(C(N)=O)cnc2ccc(-c3ccc(C)nc3)cc12				> 4.3	7.3	150	5.5			0.05				
COCc1ccc(-c2cc3c(N[C@@H](C)c4nn(C)cc4F)c(C(N)=O)cnc3cc2F)cn1				3	5.5	4.8	> 30			0.019				
NC(=O)c1cnc2ccc(-c3cccnc3)cc2c1NCC1CCCCC1				> 4.3	40	130	3		0.83	0.456				
NC(=O)c1cnc2cc(F)c(-c3cccnc3)cc2c1NC1CCOCC1				2.1	5.5	13	> 30			0.606				
CCC(CC)CNc1c(C(N)=O)cnc2c(C)cc(-c3cccnc3)cc12							> 30			6				
CCC(CC)CNc1c(C(N)=O)cnc2ccc(-c3cccnc3)cc12				4	43	140	> 11			0.073				
CCC(CC)CNc1c(C(N)=O)cnc2ccc(-c3ccncc3)cc12				3.3	37	76	0.73			0.418				
C[C@@H](Nc1c(C(=O)O)cnc2ccc(-c3cccnc3)cc12)c1ccc(Cl)cc1							> 30			> 30				
COCc1ccc(-c2ccc3ncc(C(N)=O)c(N[C@@H](C)c4ccn(C)n4)c3c2)c(F)n1				2.6	5.7	6.4	> 25			0.063				

Compound	IC50 [1] [µM]	IC50 [2] [µM]	IC50 [3] [µM]	logD (physchem)	hepatocyte CLint at 1.5 h (in vitro [4]) [µL/min/1e6 cells]	hepatocyte CLint at 1.5 h (in vitro [5]) [µL/min/1e6 cells]	IC50 [6] [µM]	IC50 [7] [µM]	IC50 [8] [µM]	IC50 [9] [µM]	IC50 [10] [µM]	IC50 [11] [µM]	IC50 [12] [µM]	IC50 [13] [µM]
NC(=O)c1cnc2ccc(-c3cccnc3)cc2c1SC1CCCC1				3.2	18	120	> 23		5.1	9.7				
C[C@H](Nc1c(C(N)=O)cnc2ccc(-c3cccnc3)cc12)c1ccn(C)n1				2.5	10	31	0.64		11	0.124				
C[C@@H](Nc1ccnc2ccc(-c3cccnc3)cc12)c1ccc(Cl)cc1							> 30			> 30				
COCc1ccc(-c2cc3c(N[C@@H](C)C4CCOCC4)c(C(N)=O)cnc3cc2F)cn1							> 30			0.052				
NC(=O)c1cnc2c(Cl)cc(-c3cccnc3)cc2c1NC1CCOCC1				2.1	< 1	7.3	> 30			> 30				
NC(=O)c1cnc2cc(Cl)c(-c3cccnc3)cc2c1NC1CCOCC1				2.7	4.3	15	> 30		1.2	3.25				
NC(=O)c1cnc2ccc(-c3cccnc3)cc2c1NCC1CCOCC1				2.1	12	19	11			3.23				
COc1cc2ncnc(-n3nc(-c4ccccn4)nc3N)c2cc1OC	5.44	> 1	4.59	2.6	4.5	89	> 30	1.49						0.879
NC(=O)c1cnc2ccc(-c3cccnc3)cc2c1NC1CCCCC1				3.8	34	70	3.2			0.132				
C[C@H](Nc1c(C(N)=O)cnc2ccc(-c3cccnc3)cc12)C1CCOCC1				2.5	14	38	> 14		3.6	0.168				
C[C@@H](Nc1c(C(N)=O)cnc2ccc(-c3cccnc3)cc12)C1CCOCC1				2.3	14	46	3.5		4.3	0.73				
CCC(CC)CNc1c(C(N)=O)cnc2ccc(-c3cccnn3)cc12							> 15			0.571				
CCC(CC)CNc1c(C(N)=O)cnc2ccc(-c3cncnc3)cc12				3.3	46	140	> 18			1.84				
CCC(CC)CNc1c(C(N)=O)cnc2ccc(-c3ccc(CS(C)(=O)=O)nc3)cc12				3.1	15	200	> 30		1.9	0.039				
C[C@@H](Nc1c(C(N)=O)cnc2ccc(-c3cccnc3)cc12)c1ccn(C)n1				2.3	3.4	120	> 18		2.8	1.13				
NC(=O)c1cnc2c(F)cc(-c3cccnc3)cc2c1NC1CCOCC1							> 30			> 30				
CCC(CC)CNc1c(C(N)=O)cnc2ccc(-c3ccc(CO)nc3)cc12				3.7	150	> 300	> 13		3.1	0.087				
CCC(CC)CNc1c(C(N)=O)cnc2ccc(-c3ccc(CS(C)(=O)=O)cc3)cc12				3.5	23	210	> 30		2.1	0.07				
NC(=O)c1cnc2ccc(-c3cccnc3)c(F)c2c1NC1CCOCC1				1.5	< 3	11	> 30		13	> 30				
NC(=O)c1cnc2ccc(-c3cccnc3)cc2c1NC1CCCC1				3.6	23	65	1.2		0.57	0.137				

— ChEMBL document CHEMBL4477207, “Discovery of Novel 3-Quinoline Carboxamides as Potent, Selective, and Orally Bioavailable Inhibitors of Ataxia Telangiectasia Mutated (ATM) Kinase” (J Med Chem, 2016)
